Data as given in patent US20030143559A1, “Novel estrogen receptor ligand binding domain variants and novel ligands and pharmaceutical compositions” (priority 2001, published 2003).
Positions count from the first letter of the chain named.

Key:
H524A mutant = biological target: T1, H524A mutant (Homo sapiens, UniProt P03372, H524A); assay: H524A mutant activation, cell-based reporter gene assay; conditions: 10 nM ligand
T1 construct: plasmids encoding the fusion proteins ER-LBD-C7LBDa and C7LBDb to substitute either alanine or glycine for histidine at residue 524; expressed in transfected cells
T1 sequence (P03372 311-547 H524A limits assumed): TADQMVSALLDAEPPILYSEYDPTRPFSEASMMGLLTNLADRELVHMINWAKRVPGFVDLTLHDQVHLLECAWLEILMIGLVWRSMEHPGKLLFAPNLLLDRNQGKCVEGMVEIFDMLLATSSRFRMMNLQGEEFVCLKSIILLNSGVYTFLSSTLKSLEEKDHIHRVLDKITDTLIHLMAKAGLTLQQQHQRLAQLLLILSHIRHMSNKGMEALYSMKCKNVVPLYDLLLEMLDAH
Method: (§1) In order to evaluate the ability of the fusion proteins C7LBD A, B, and the related LBD mutants to regulate transgene expression, a standard co-transfection reporter assay was performed. A reporter construct, henceforth known as 6×2C7pGL3Luc, containing six copies of a directly repeated C7 binding site (6×2C7) inserted upstream of an SV40 promoter fragment and reporter gene encoding firefly luciferase (pGL3Pro; Promega) was transfected along with the designated fusion protein and assayed as described below. Note the consensus C7 binding site is 5′-GCG TGG GCG-3′.
Cultured cells (HeLa, Cos, Hep3B or other) were seeded at 5×10^4 cells/well in a 24 well plate prior to the day of transfection in DMEM Phenol-free media, supplemented with L-glutamine and 5% (v/v) charcoal-dextran stripped Fetal Bovine serum (sFBS). Cells were transfected using the Qiagen Superfect Transfection method. For each well 1 μg of total DNA, containing 0.5 μg luciferase reporter plasmid (6×2C7pGL3Luc), 0.1 μg of chimeric activator DNA (e.g., C7LBDA, C7LBDB, or mutants thereof ), and 0.4 μg of an inert carrier plasmid DNA (p3Kpn), was mixed with 60 μL of DMEM phenol-free/serum free media, and 5 μL of Superfect reagent. In general, about 10 ng to about 0.5 μg of chimeric activator DNA was used for each well. […]

[1] = biological target: T2, 524G transcription factor (Homo sapiens, UniProt P03372, H524G); assay: In vitro inducible luciferase expression with gutless adenoviral transcription factor vector in Hela cells; assay type: cell-based
T2 construct: fragment B=ER amino acids 258-554; expressed in transfected cells; host or cells: HeLa cells transduced with Av3 or gutless adenoviral vector
T2 sequence (P03372 258-554 H524G): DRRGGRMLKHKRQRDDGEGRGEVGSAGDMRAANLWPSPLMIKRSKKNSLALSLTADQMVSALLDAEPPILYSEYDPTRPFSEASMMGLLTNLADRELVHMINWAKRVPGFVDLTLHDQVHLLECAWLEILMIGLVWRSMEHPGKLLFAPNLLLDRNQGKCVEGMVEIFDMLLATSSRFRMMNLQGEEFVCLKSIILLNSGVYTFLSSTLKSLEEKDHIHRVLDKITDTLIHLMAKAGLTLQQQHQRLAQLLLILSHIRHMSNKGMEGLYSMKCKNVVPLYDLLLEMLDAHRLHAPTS

wild-type ER = biological target: T3, wild-type ER (Homo sapiens, UniProt P03372); assay: Inhibition of E2 activity on wild-type ER, COS-7 cells with pHEGO and ERE luciferase reporter; assay type: cell-based; conditions: IC50 ± STDEV, pHEGO and pERETkLuc, E2 (3 nM) + 0.1 to 1000 nM compound
T3 construct: expressed in transfected cells; host or cells: COS-7
T3 sequence (P03372 1-595): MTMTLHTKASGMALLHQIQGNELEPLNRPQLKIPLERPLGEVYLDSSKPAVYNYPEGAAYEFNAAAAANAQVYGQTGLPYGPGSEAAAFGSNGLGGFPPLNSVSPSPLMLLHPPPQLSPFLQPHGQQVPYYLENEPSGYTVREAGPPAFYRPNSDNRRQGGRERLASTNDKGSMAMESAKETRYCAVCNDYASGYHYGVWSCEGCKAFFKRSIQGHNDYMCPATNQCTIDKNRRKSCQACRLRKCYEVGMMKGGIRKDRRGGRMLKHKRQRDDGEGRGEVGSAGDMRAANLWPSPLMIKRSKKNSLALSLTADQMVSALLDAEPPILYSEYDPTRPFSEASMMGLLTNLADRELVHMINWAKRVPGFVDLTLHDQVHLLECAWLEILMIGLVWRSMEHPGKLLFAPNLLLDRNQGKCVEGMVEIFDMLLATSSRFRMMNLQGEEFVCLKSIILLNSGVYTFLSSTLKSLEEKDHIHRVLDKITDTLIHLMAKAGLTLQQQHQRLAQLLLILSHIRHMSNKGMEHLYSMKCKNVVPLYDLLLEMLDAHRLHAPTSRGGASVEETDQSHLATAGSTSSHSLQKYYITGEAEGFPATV
Method: For transfection, 0.5 microgram of pERE2tkluc reporter plasmid, 20 ng of pHEGO, and 0.5 microgram of pCIneo inert carrier DNA were combined with 60 microliter serum-free DMEM and 5 microliter Qiagen Superfect transfection reagent, vortexed for 10s, and set at room temperature for 10 min. Each sample was diluted with 350 microliters of steroid-free media, mixed, and added to each well. Following 2 hr 30 min incubation at 37° C., cells were washed once with Dulbecco's phosphate buffered saline (DPBS), and refed with steroid-free media. […] Approximately 24 hr after treatment, cells were washed once with DPBS, then 200 microliter of reporter lysis buffer was added per well and frozen at −80° C. Cells were thawed at room temperature on an orbital shaker for 1 hr 30 min. A 10 microliter aliquot of lysate was transferred to 96 well opaque plates, and relative luciferase units (RLU) determined on a luminometer using the appropriate firefly luciferase substrate.
Note that the nonspecific activity is a noncompetable element in the assay system.
In order to dissolve them completely, all the solutions were warmed in 55° C. or boiled water bath for 10 to 20 min before use. The DMSO in cell culture medium was maintained to 0.01% for all the drug concentration tested as well as the vehicle control.

Av3-H524G = biological target: T4, Av3-H524G (Homo sapiens, UniProt P03372, H524G); assay: Transactivation on adenoviral (Av3)-delivered ER variant, luciferase in HeLa cells; assay type: cell-based; conditions: 100 nM test compound, 24 hrs (FIG. 5)
T4 construct: fragment B=ER amino acids 258-554; expressed in transfected cells; host or cells: HeLa cells transduced with Av3 or gutless adenoviral vector
T4 sequence (P03372 258-554 H524G): T2 sequence (P03372 258-554 H524G)
From the text: Xu et al., Molecular Therapy, 3:262-273, 2000.

ER-LBD H524G = biological target: T5, ER-LBD H524G (Homo sapiens, UniProt P03372, H524G); assay: ER-LBD H524G transactivation, cell-based reporter gene assay
T5 construct: expressed in transfected cells
T5 sequence (P03372 311-547 H524G limits assumed): T1 sequence (P03372 311-547 H524A limits assumed) with A214G
Method: as §1
Cultured cells (HeLa, Cos, Hep3B or other) were seeded at 5×10^4 cells/well in a 24 well plate prior to the day of transfection in DMEM Phenol-free media, supplemented with L-glutamine and 5% (v/v) charcoal-dextran stripped Fetal Bovine serum (sFBS). Cells were transfected using the Qiagen Superfect Transfection method. For each well 1 μg of total DNA, containing 0.5 μg luciferase reporter plasmid (6×2C7pGL3Luc), 0.1 μg of chimeric activator DNA (e.g., C7LBDA, C7LBDB, or mutants thereof ), and 0.4 μg of an inert carrier plasmid DNA (p3Kpn), was mixed with 60 μL of DMEM phenol-free/serum free media, and 5 μL of Superfect reagent. In general, about 10 ng to about 0.5 μg of chimeric activator DNA was used for each well.
The mixture was vortexed for 10 seconds and incubated at room temperature for 10 minutes, followed by the addition of 350 μL of DMEM phenol-free 5% sFBS media. Cells were washed once with Dulbecco's phosphate buffered saline (DPBS) and the transfection mixture placed on the cells. Cells were washed once with DPBS following a 2.5 hour incubation at 37 degrees Celsius, and re-fed with DMEM Phenol-free 5% sFBS media.
Cells were treated 24 hours later by washing once with DPBS and adding 200 μL 1X reporter lysis buffer (Promega). Plates were frozen at -80° C. and on the day of assay thawed at room temperature for 1.5 hours on an orbital shaker at 100 RPM. After allowing for cellular debris to settle, lysate was transferred to a new tube, diluted 1:10 with 1X reporter lysis buffer and 10 μL transferred to 96 well opaque plates.
The sequence of the oligonucleotides used for the H524G modification were […] […] Mutated plasmids were isolated and their sequence confirmed.

[2] = BIV lentiviral reporter vector without activator, eGFP expression by FACS in 293T cells; assay type: cell-based; conditions: reporter BIVC2H2FOSEGFP, activator none; 100 nM, forty-eight hours
From the text: One of the reporter constructs described above was introduced individually into 3×10^6 293T cells along with other components of the BIV four component packaging system (U.S. patent application of Luo et al. filed Feb. 4, 2002 entitled “Recombinant Bovine Immunodeficiency Virus Based Gene Transfer System” (Atty Docket No. 2048-127; serial number to be assigned) and Matukonis et al., (“Development of Second and Third Generation of Bovine Immunodeficiency Virus Based Gene Transfer Systems” Human Gene Therapy, in press (2002)) by CaPO4-mediated transient transfection. Eighteen hours post transfection, media were replaced with fresh DMEM containing 10% FBS and 200 mM butyric acid. Forty-eight hours later, conditioned media were collected from the transfected cells. Two mls of conditioned media from each transfection plus 2 mls of DMEM/FBS were added to 2×10^5 293T cells in individual wells of a six well tissue culture plate. In addition, 2 mls of conditioned media from either the pBIVC2H2FOSeGFP transfections were combined with 2 mls of conditioned media from the pBIVMNDC7 or pBIVMND2AS transfections and added to 2×10^5 293T cells. 8 μg/ml protamine sulfate were added to each transduction reaction. Four hours later, conditioned media was removed from the transduced cells and replaced with fresh DMEM/FBS. […]

Compound	fold induction at 0.01 µM (H524A mutant)	Fold Induction ([1]; 100 nM ligand vs without ligand) [fold]	Luciferase Expression Levels (Relative Light Units) ([1]; (+) induced with 100 nM ligand, mean +/− standard error (n = 4))	IC50 (wild-type ER) [nM]	luciferase activity over the basal level (Av3-H524G) [times]	degree of induction of H524G as compared to estrogen (ER-LBD H524G; 10 nM)	fold induction at 0.01 µM (ER-LBD H524G; 10 nM ligand, H524G (FIG. 6))	fold induction at 10 nM (ER-LBD H524G; 10 nM ligand, H524G (FIG. 6)) [fold]	EC50 (ER-LBD H524G; Table 3, read-out: EC50 ± STDEV) [nM]	% Gated Cells [2] [%]
C/C(=C(/c1ccc(O)cc1)c1ccc(OCCN(C)C)cc1)c1ccc(N2CCOCC2)cc1 [LBF580, 4-((1E)-1-{4-[2-(dimethylamino)ethoxy]phenyl}-2-(4-morpholin-4-ylphenyl)prop-1-enyl)phenol]	4	8	285695 +/− 2331 Relative Light Units	253	16	nine	138	140	≤ 25	
4-hydroxytamoxifen [4-OHT]										0.36
